Assay results published in patent US8106055B2, “Substituted amide compounds” (Gruenenthal GmbH, priority 2007, dated 2012).

Columns and labels:
[1] = target: T1, serotonin (5-HT) reuptake (Rattus norvegicus, UniProt P31652); test: Inhibition of serotonin (5HT) reuptake in synaptosomes from rat brain; format: biochemical; details: test concentration of 10 μM; for inhibition at 10 µM: read-out: 5-HT (inhibition of reuptake of serotonin, % inhibition)
T1 construct: synaptosomes are freshly isolated from areas of the rat brain; from tissue; host or cells: rat brain synaptosomes (P2 fraction)
T1 sequence (P31652 whole entry): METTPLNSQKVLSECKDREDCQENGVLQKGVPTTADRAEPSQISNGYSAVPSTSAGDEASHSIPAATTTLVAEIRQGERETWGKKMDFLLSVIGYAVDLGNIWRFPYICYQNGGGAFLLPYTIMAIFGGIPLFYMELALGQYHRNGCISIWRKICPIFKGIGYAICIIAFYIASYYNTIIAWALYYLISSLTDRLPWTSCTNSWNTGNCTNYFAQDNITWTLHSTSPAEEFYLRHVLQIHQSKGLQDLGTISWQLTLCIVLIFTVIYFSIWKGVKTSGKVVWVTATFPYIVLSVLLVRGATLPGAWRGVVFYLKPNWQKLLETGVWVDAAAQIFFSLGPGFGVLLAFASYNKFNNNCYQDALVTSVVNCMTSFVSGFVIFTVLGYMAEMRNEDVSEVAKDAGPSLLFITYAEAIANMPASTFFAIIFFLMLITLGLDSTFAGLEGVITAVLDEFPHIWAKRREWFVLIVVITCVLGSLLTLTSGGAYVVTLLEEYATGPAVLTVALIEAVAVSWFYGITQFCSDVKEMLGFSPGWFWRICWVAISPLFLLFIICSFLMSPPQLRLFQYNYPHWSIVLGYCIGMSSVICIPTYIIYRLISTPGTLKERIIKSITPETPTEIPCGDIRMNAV
In short: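 Freshly isolated rat brain synaptosomes (P2 fraction) used for 5-HT reuptake. Test compound at 10 μM, activity given as % inhibition.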

[2] = target: T2, human μ opiate receptor (Homo sapiens, UniProt P35372); test: Affinity for the human μ opiate receptor ([3H]-naloxone displacement, CHO-K1 receptor membrane preparation, SPA); format: binding; details: test concentration of 1 μM; for inhibition at 1 µM: read-out: μ (binding on the μ opioid receptor, % inhibition)
T2 construct: purchased PerkinElmer Life Sciences, Zaventem, Belgium RB-HOM; host or cells: CHO-K1 cells (membrane preparation)
T2 sequence (P35372 whole entry): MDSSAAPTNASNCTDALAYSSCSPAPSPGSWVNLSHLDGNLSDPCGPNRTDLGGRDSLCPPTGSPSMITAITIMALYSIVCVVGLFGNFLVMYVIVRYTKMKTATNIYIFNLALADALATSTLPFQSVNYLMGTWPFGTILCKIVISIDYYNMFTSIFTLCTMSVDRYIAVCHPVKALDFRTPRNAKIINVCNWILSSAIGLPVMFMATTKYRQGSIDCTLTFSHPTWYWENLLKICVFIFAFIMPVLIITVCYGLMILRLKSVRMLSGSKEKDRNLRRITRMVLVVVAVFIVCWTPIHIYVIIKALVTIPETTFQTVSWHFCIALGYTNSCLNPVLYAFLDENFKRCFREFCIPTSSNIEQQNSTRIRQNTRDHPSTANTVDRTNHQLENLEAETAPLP
In short: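 CHO-K1 membranes expressing human μ receptor incubated 90 min at room temperature with 1 nmol/l [3H]-naloxone and WGA-SPA beads in 50 mmol/l Tris-HCl, 0.06% BSA; 100 μmol/l naloxone defines non-specific binding. Values are % inhibition of specific binding at 1 μM; IC50 converted to Ki by Cheng-Prusoff.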

Row | SMILES | inhibition at 10 µM [1] | inhibition at 1 µM [2] | 5-HT (inhibition of reuptake of serotonin, % inhibition) [1] | μ (binding on the μ opioid receptor, % inhibition) [2] | also measured
1 | COc1cc(C)c(S(=O)(=O)N2CCC(CCOCC(=O)NC3CCC(C(c4cccc(F)c4)N(C)C)CC3)CC2)c(C)c1C (centres unmarked) [Example 118, N-(4-((dimethylamino)(3-fluorophenyl)methyl)cyclohexyl)-2-(2-(1-(4-methoxy-2,3,6-trimethylphenylsulfonyl)piperidin-4-yl)ethoxy)acetamide] | 92% | 90% |  |  | 
2 | CN(C)C(c1cccc(F)c1)C1CCC(CNC(=O)COCC2CCCN2S(=O)(=O)c2ccc(Cl)c(Cl)c2)CC1 (centres unmarked) [Example 119, 2-((1-(3,4-dichlorophenylsulfonyl)pyrrolidin-2-yl)methoxy)-N-((4-((dimethylamino)(3-fluorophenyl)methyl)cyclohexyl)methyl)acetamide] | 96% | 90% |  |  | 
3 | COc1ccc(S(=O)(=O)N2CCCCC2COCC(=O)NCCC2CCC(C(c3cccs3)N(C)C)CC2)cc1OC (centres unmarked) [Example 120, 2-((1-(3,4-dimethoxyphenylsulfonyl)piperidin-2-yl)methoxy)-N-(2-(4-((dimethylamino)(thiophen-2-yl)methyl)cyclohexyl)ethyl)acetamide] | 91% | 92% |  |  | 
4 | Cc1ccc(S(=O)(=O)N2CCC(OCC(=O)NCC3CCC(C(c4ccccc4)N(C)C)CC3)C2)cc1 (centres unmarked) [Example 125, N-((4-((dimethylamino)(phenyl)methyl)cyclohexyl)methyl)-2-(1-tosylpyrrolidin-3-yloxy)acetamide] | 91% | 91% |  |  | 
5 | CN(C)C(c1cccc(F)c1)C1CCC(CCNC(=O)COCCN(C)S(=O)(=O)c2ccc(Cl)cc2Cl)CC1 (centres unmarked) [Example 126, 2-(2-(2,4-dichloro-N-methylphenylsulfonamido)ethoxy)-N-(2-(4-((dimethylamino)(3-fluorophenyl)methyl)cyclohexyl)ethyl)acetamide] | 86% | 92% |  |  | 
6 | COc1ccc(S(=O)(=O)N(C)CCOCC(=O)NCC2CCC(C(c3cccs3)N(C)C)CC2)cc1OC (centres unmarked) [Example 127, 2-(2-(3,4-Dimethoxy-N-methylphenylsulfonamido)ethoxy)-N-((4-((dimethylamino)(thiophen-2-yl)methyl)cyclohexyl)methyl)acetamide] | 79% | 87% |  |  | 
7 | COc1ccc(S(=O)(=O)N(C)CCOCC(=O)NCCC2CCC(C(c3cccs3)N(C)C)CC2)cc1 (centres unmarked) [Example 128, N-(2-(4-((dimethylamino)(thiophen-2-yl)methyl)cyclohexyl)ethyl)-2-(2-(4-methoxy-N-methylphenylsulfonamido)ethoxy)acetamide] | 83% | 91% |  |  | 
8 | COc1cc(C)c(S(=O)(=O)N2CCCC(OCC(=O)NCCC3CCC(C(c4cccs4)N(C)C)CC3)C2)c(C)c1C (centres unmarked) [Example 130, N-(2-(4-((dimethylamino)(thiophen-2-yl)methyl)cyclohexyl)ethyl)-2-(1-(4-methoxy-2,3,6-trimethylphenylsulfonyl)piperidin-3-yloxy)acetamide] | 95% | 94% |  |  | 
9 | COc1cc(C)c(S(=O)(=O)N2CCC(CCOCC(=O)NCC3CCC(C(c4cccs4)N(C)C)CC3)CC2)c(C)c1C (centres unmarked) [Example 131, N-((4-((dimethylamino)(thiophen-2-yl)methyl)cyclohexyl)methyl)-2-(2-(1-(4-methoxy-2,3,6-trimethylphenylsulfonyl)piperidin-4-yl)ethoxy)acetamide] | 91% | 86% |  |  | 
10 | CN(C)C(c1cccc(F)c1)C1CCC(NC(=O)COC2CCCCC2N(C)S(=O)(=O)c2ccc(Cl)c(Cl)c2)CC1 (centres unmarked) [Example 132, 2-(2-(3,4-dichloro-N-methylphenylsulfonamido)cyclohexyloxy)-N-(4-((dimethylamino)(3-fluorophenyl)methyl)cyclohexyl)acetamide] | 83% | 91% |  |  | 
11 | COc1ccc(S(=O)(=O)N2CCCCC2COCC(=O)NCC2CCC(C(c3cccs3)N(C)C)CC2)cc1OC (centres unmarked) [Example 133, 2-((1-(3,4-Dimethoxyphenylsulfonyl)piperidin-2-yl)methoxy)-N-((4-((dimethylamino)(thiophen-2-yl)methyl)cyclohexyl)methyl)acetamide] | 88% | 89% |  |  | 
12 | CN(C)C(c1ccccc1)C1CCC(NC(=O)COCCN(C)S(=O)(=O)c2c(Cl)cccc2Cl)CC1 (centres unmarked) [Example 135, 2-(2-(2,6-dichloro-N-methylphenylsulfonamido)ethoxy)-N-(4-((dimethylamino)(phenyl)methyl)cyclohexyl)acetamide] | 83% | 89% |  |  | 
13 | COc1ccc(S(=O)(=O)N2CCCCC2COCC(=O)NCC2CCC(C(CCc3ccccc3)N(C)C)CC2)c(OC)c1 (centres unmarked) [Example 420] |  |  |  |  | 5-HT (inhibition of reuptake of serotonin, % inhibition) ([1]; 10 µM): 74%; μ (binding on the μ opioid receptor, % inhibition) ([2]; 1 µM): 53%
14 | CN(C)C(CCc1ccccc1)C1CCC(CNC(=O)COCCN(C)S(=O)(=O)c2c(Cl)cccc2Cl)CC1 (centres unmarked) [Example 476] |  |  |  |  | 5-HT (inhibition of reuptake of serotonin, % inhibition) ([1]; 10 µM): 80%; μ (binding on the μ opioid receptor, % inhibition) ([2]; 1 µM): 47%
15 | COc1ccc(S(=O)(=O)N2CCCCC2COCC(=O)NCC2CCC(C(CCc3ccccc3)N(C)C)CC2)c(OC)c1 (centres unmarked) [Example 486] |  |  |  |  | 5-HT (inhibition of reuptake of serotonin, % inhibition) ([1]; 10 µM): 73%; μ (binding on the μ opioid receptor, % inhibition) ([2]; 1 µM): 36%
16 | CN(C)C(c1cccc(F)c1)C1CCC(CCNC(=O)COCCC2CCN(S(=O)(=O)c3ccccc3)CC2)CC1 (centres unmarked) [Example 543] |  |  | 76% | 29% | 
17 | CN(C)C(CCc1ccccc1)C1CCC(CNC(=O)COCC2CCCN(S(=O)(=O)c3ccccc3)C2)CC1 (centres unmarked) [Example 544] |  |  | 92% | 24% | 
18 | COc1cc(C)c(S(=O)(=O)N2CCC(OCC(=O)NCC3CCC(C(CCc4ccccc4)N(C)C)CC3)CC2)c(C)c1C (centres unmarked) [Example 546] |  |  | 91% | 33% | 
19 | COc1cc(C)c(S(=O)(=O)N(CCOCC(=O)NCCC2CCC(C(c3ccc(F)cc3)N(C)C)CC2)Cc2ccccc2)c(C)c1 (centres unmarked) [Example 547] |  |  | 90% | 30% | 
20 | COc1ccc(S(=O)(=O)N(C)CCOCC(=O)NC2CCC(C(c3ccc(F)cc3)N(C)C)CC2)cc1OC (centres unmarked) [Example 548] |  |  | 99% | 26% | 
21 | COc1ccc(S(=O)(=O)N(C)CCOCC(=O)NC2CCC(C(c3ccc(F)cc3)N(C)C)CC2)cc1 (centres unmarked) [Example 549] |  |  | 81% | 29% | 
22 | COc1ccc(S(=O)(=O)N(C)CCOCC(=O)NCC2CCC(C(CCc3ccccc3)N(C)C)CC2)cc1 (centres unmarked) [Example 550] |  |  | 74% | 20% | 
23 | COc1cc(C)c(S(=O)(=O)N2CCCC(OCC(=O)NCC3CCC(C(CCc4ccccc4)N(C)C)CC3)C2)c(C)c1C (centres unmarked) [Example 551] |  |  | 85% | 35% | 
24 | CN(C)C(CCc1ccccc1)C1CCC(CNC(=O)COC2CCN(S(=O)(=O)c3cccc(C(F)(F)F)c3)C2)CC1 (centres unmarked) [Example 552] |  |  | 90% | 23% | 
25 | CN(C)C(c1ccc(F)cc1)C1CCC(CCNC(=O)COC2CCN(S(=O)(=O)c3ccccc3)CC2)CC1 (centres unmarked) [Example 553] |  |  | 94% | 26% | 
